Entries after “also recorded” stand apart in the source; their conditions may differ. d = 2'-deoxy (DNA); r = 2'-OH (RNA)
What was measured:
[1] = test system: TLK1; test: TLK1 post-transcriptional silencing in HeLa cells (Western blot); assay type: cell-based, human; details: 48 h after transfection
Description: In order to test whether dsRNA molecules show the same cellular uptake and stability the efficiency of these molecules to post-transcriptionally silence the expression of TLK1 was determined as si6 as well as si5 siRNA are directed against the mRNA of this protein. […] As a loading control the unchanged expression levels of TAK1-A/B and 3-tubulin are shown in the two lower panels.

[2] = molecular target: T1, TAK1-D (Homo sapiens, UniProt O43318); test: TAK1-D autophosphorylation on T184/T187 in H460 cells (Western blot, phospho-specific antibody); assay type: cell-based; design: endogenous in cells; host or cells: NCI-H460; details: for activating autophosphorylation (activation) of TAK1-D on T184 and T187: RNA transfected (20 nM), Western blot; for activating autophosphorylation of TAK1-D on T184 and T187: H460, ribotoxins 90 minutes (same concentrations)
T1 sequence (O43318 1-491 isoform O43318-4): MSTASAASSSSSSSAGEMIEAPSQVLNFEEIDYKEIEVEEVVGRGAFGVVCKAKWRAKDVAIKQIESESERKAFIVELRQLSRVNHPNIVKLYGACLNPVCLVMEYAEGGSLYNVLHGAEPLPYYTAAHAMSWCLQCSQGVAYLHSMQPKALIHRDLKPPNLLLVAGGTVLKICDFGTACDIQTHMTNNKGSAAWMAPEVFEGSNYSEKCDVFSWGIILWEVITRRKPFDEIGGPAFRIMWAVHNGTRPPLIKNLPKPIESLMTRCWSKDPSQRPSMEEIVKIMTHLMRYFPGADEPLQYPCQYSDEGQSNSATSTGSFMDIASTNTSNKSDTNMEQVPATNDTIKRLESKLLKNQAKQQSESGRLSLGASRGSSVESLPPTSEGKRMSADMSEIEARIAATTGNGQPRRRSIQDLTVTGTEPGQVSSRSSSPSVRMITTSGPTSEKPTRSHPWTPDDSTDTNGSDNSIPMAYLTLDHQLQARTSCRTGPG
Description: In an effort to identify the MAPKKK responsible for the activation of the p38 MAP kinase and SAPK/JNK pathway, several of these kinases were screened for siRNA si5 mediated activation.
Immunoblot analysis. Western blotting was performed exactly as described previously (Kodym et al., 2008b). In addition to the primary antibodies previously mentioned (Kodym et al., 2008b) the following antibodies were used: S6 ribosomal protein (Cell Signaling #2217), DPM1 (Santa Cruz #sc-15836, Santa Cruz, Calif., USA), and Histone H3 (Cell Signaling #9715).

[3] = test system: p38 MAP kinase pathway; test: Activation of the p38 MAP kinase pathway in H460 cells (Western blot); assay type: cell-based, human
Source text: Both siRNAs were directed against the mRNA of the same gene TLK1.

[4] = test system: SAPK/JNK pathway; test: Activation of the SAPK/JNK pathway in H460 cells (Western blot); assay type: cell-based, human; details: H460, ribotoxins 90 minutes (same concentrations)
[5] = test system: H460 cells; test: Survival assay of H460 cells, Crystal Violet staining
[6] = test system: TAK1-A; test: Autophosphorylation of the other (long) Tak1 splicing variants in H460 cells; assay type: cell-based, human; details: 10 ng/ml, 30 min
Source text: In contrast only the long form (TAK1-A) is able to activate the NFκB pathway through phosphorylation of IKKα/β.

[7] = test system: NF-κB; test: NF-κB activation in H460 cells (EMSA, IKKα/β phosphorylation); assay type: cell-based, human; details: 10 ng/ml, 30 min, listed as IL1β
Description: EMSA. Electrophoretic mobility shift assays for NFκB were performed as described previously (Kurland et al., 2001) using 3.5 μg of nuclear protein for each reaction.
FIG. 16B illustrates the effect of dominant-negative TAK1-D/K63W on dsRNA si5 induced cell death. […] As a slight growth inhibition of si5 transfected H460-K63W cells can be observed in FIG. 16B it is interesting to ask whether this is caused by an incomplete suppression of TAK1-D activity or by activation of other dsRNA-dependent stress pathways. To answer this question, the activation of the transcription factor NF-κB by dsRNA si5 was tested, as it well established that dsRNA triggered activation of PKR (Zamanian-Daryoush et al., 2000), TLR3 (Jiang et al., 2003), and RIG1/Mda-5 (Hiscott et al., 2006) leads to a downstream activation of NF-κB.

In the case of “si5s: si5 with two ribonucleotides in the middle of the molecule deleted (SEQ ID NO:17) (GGCUUUUGACUUAUGAATT; siRNA; sugars from the 5' end r17 d2, backbone not given here)”, the “expression level of TLK1” value [1] is reported as “lack of post-transcriptional silencing of TLK1” and the “activating autophosphorylation (activation) of TAK1-D on T184 and T187” value ([2]; H460 cells) is reported as “completely abolished its ability to activate Tak1-D”.
“si5OMeA: si5 sequence with U and G 2′-O-methylated in the antisense strand only (SEQ ID NO:27 and 28) (chain 1 GGCUUUUGACCUUUAUGAATT; chain 2 UUCCGAAAACUGGAAAUACUU; 2'-O-methyl U and G in antisense strand, chemistry not fully specified; one strand is listed 3' to 5')” was tested, and the “expression level of TLK1” value [1] was “very significant reduction in the expression of TLK1”.
`COc1ccc(C[C@H](N)C(=O)N[C@H]2[C@@H](O)[C@H](n3cnc4c(N(C)C)ncnc43)O[C@@H]2CO)cc1` [Puromycin, reference compound] was tested, and the “activating phosphorylations of p38 MAP kinase and its upstream kinases MKK3/6” value [3] was “induced activating phosphorylations”, the “activating phosphorylations of SAPK/JNK and its upstream kinase MKK4” value [4] was “induced activating phosphorylations” and the “activating autophosphorylation of TAK1-D on T184 and T187” value [2] was “led to an activating autophosphorylation of TAK1-D”. For the same compound, the “activating autophosphorylation of TAK1-D on T184 and T187” value ([2]; listed as puromycin) was “induce an activating TAK1-D phosphorylation”.
For “si6: control 21-mer siRNA against TLK1 mRNA: GGGUGGAAAUGGCUCAAGUtt (SEQ ID NO: 4) / gtCCCACCUUUACCGAGUUCA (SEQ ID NO: 5) (sense GGGUGGAAAUGGCUCAAGUTT; antisense GTCCCACCUUUACCGAGUUCA; Artificial primer) [reference compound]”, the “cytotoxicity, Crystal Violet” value ([5]; H460, concentration range tested (up to 20 nM), 48 h) was “does not show any significant cytotoxicity”.
For `C[C@@H]1C[C@@H]([C@H](O)CC2CC(=O)NC(=O)C2)C(=O)[C@@H](C)C1` [Cycloheximide], the “activating phosphorylations of p38 MAP kinase and its upstream kinases MKK3/6” value [3] was “induced activating phosphorylations; also recorded: induce an activation of p38 MAP kinase and SAPK/JNK”, the “activating phosphorylations of SAPK/JNK and its upstream kinase MKK4” value [4] was “induced activating phosphorylations” and the “activating phosphorylations of SAPK/JNK and its upstream kinase MKK4” value ([4]; listed as cycloheximide) was “induce an activation of p38 MAP kinase and SAPK/JNK”. The “activating autophosphorylation of TAK1-D on T184 and T187” value [2] was “No such activation was detectable”.
In the case of “si5d: si5 with one U of the homopolymeric stretch changed to a C (SEQ ID NO:19) (GGCUUCUGACCUUUAUGAATT; siRNA; sugars from the 5' end r19 d2, backbone not given here)”, the “expression level of TLK1” value [1] is reported as “very significant reduction in the expression of TLK1” and the “activating autophosphorylation (activation) of TAK1-D on T184 and T187” value ([2]; H460 cells) is reported as “significantly reduced the capacity of the molecule to activate TAK1-D”.
For “IL1: interleukin 1, positive control activating the long TAK1 variant via IL-1 receptor”, the “activation of the p38 MAP kinase pathway (MKK3/6)” value ([3]; H460 cells, 10 ng/ml IL1) was “activating the p38 MAP kinase pathway (MKK3/6)”, the “autophosphorylation of the long splicing variant of Tak1” value [6] was “autophosphorylation of the large splicing variant of Tak1 (A and B)” and the “autophosphorylation of the long splicing variant of Tak1” value ([6]; listed as IL1β) was “activates exclusively the long form of TAK1 (TAK1-A)”. For the same compound, the “activation of the NFκB cascade (IKKα/β phosphorylation)” value [7] was “activates the NFκB pathway” and the “activation of TAK1-D” value ([2]; H460 cells, 10 ng/ml IL-1) was “does not activate TAK1-D”.
For `CN[C@@H]1[C@@H](O)[C@@H](O[C@@H]2[C@@H](O)[C@H](O[C@H]3O[C@H]([C@@H](C)O)[C@@H](O)[C@H](O)[C@H]3N)[C@@H](N)C[C@H]2N)OC[C@]1(C)O` [G418], the “activating phosphorylations of p38 MAP kinase and its upstream kinases MKK3/6” value [3] was “exception” and the “activating phosphorylations of SAPK/JNK and its upstream kinase MKK4” value [4] was “exception”.
With “OmeS: si5 sequence with several bases of the sense strand 2′-O-methyl modified (SEQ ID NO:25 and 26) (chain 1 GGCUUUUGACCUUUAUGAAUU; chain 2 TTCCGAAAACUGGAAAUACUU; 2'-O-methyl on sense strand bases, chemistry not fully specified; one strand is listed 3' to 5')” the “expression level of TLK1” value [1] was “very significant reduction in the expression of TLK1”.
With “OmeD: si5 sequence with 2′-O-methyl on both strands (SEQ ID NO:23 and 24) (chain 1 GGCUUUUGACCUUUAUGAAUU; chain 2 UUCCGAAAACUGGAAAUACUU; siRNA; 2'-O-methyl at dot-marked bases on both strands, pattern not given here; one strand is listed 3' to 5')” the “expression level of TLK1” value [1] was “very significant reduction in the expression of TLK1” and the “activating autophosphorylation (activation) of TAK1-D on T184 and T187” value ([2]; H460 cells) was “no activation of Tak1-D could be detected”.
In the case of “shRNA: short hairpin RNA containing the si5 sequence, in vitro transcribed with T7 RNA polymerase (SEQ ID NO:20) (GGCUUUUGACCUUUAUGAAUUAAUUCAUAAAGGUCAAAAGCC; siRNA; RNA, phosphodiester; hairpin)”, the “cell death, crystal violet” value ([5]; H460, 48 hours after transfection, shRNA experiment) is reported as “led to cell death”.
With `CN(CC[C@H](N)CC(=O)N[C@H]1C=C[C@H](n2ccc(N)nc2=O)O[C@@H]1C(=O)O)C(=N)N` [Blasticidin S] the “activating phosphorylations of p38 MAP kinase and its upstream kinases MKK3/6” value [3] was “induced activating phosphorylations; also recorded: induce an activation of p38 MAP kinase and SAPK/JNK”, the “activating phosphorylations of SAPK/JNK and its upstream kinase MKK4” value [4] was “induced activating phosphorylations” and the “activating phosphorylations of SAPK/JNK and its upstream kinase MKK4” value ([4]; listed as blasticidin S) was “induce an activation of p38 MAP kinase and SAPK/JNK”. The “activating autophosphorylation of TAK1-D on T184 and T187” value [2] was “No such activation was detectable”.
In the case of “si5l: si5 extended by adding 2 ribonucleotides (SEQ ID NO:18) (GGCUUUUGACCUGUUUAUGAATT; siRNA; sugars from the 5' end r21 d2, backbone not given here)”, the “activation of the p38 MAP kinase pathway (phosphorylation of MKK3/6, p38 MAPK)” value ([3]; H460 cells, 20 nM RNA, 2-6 h) is reported as “small activation of Tak1-D and p38 MAPK could still be observed”, the “expression level of TLK1” value [1] is reported as “lack of post-transcriptional silencing of TLK1” and the “activating autophosphorylation (activation) of TAK1-D on T184 and T187” value ([2]; H460 cells) is reported as “significantly reduced its activity”.
With “AU: dsRNA with alternating A and U bases (control, SEQ ID NO:21 and 22) (chain 1 AUAUAUAUAUAUAUAUAUATT; chain 2 TTUAUAUAUAUAUAUAUAUAU; chemistry not given here) [reference compound]” the “activating autophosphorylation (activation) of TAK1-D on T184 and T187” value ([2]; H460 cells) was “does not activate the TAK1-D pathway”.
